From article PMC7456811, “Regulation of Melanocortin-4 Receptor Pharmacology by Two Isoforms of Melanocortin Receptor Accessory Protein 2 in Topmouth Culter (Culter alburnus)” (Frontiers in Endocrinology, 2020)
Marks after values point to notes of the source that are not given here.

How the values were obtained:
caMC4R [1] = assay: Competitive ligand binding (125I-NDP-MSH displacement); conditions: displacement of 125I-NDP-MSH; for IC50: HEK293T cells, mean ± SEM of at least three independent experiments
caMC4R [2] = assay: Intracellular cAMP signaling (radioimmunoassay); assay type: cell-based, topmouth culter (Culter alburnus); conditions: for stimulation of intracellular cAMP, in words / EC50 / Rmax (cAMP): HEK293T cells; for EC50: cAMP RIA; for EC50 / Rmax (cAMP): mean ± SEM of at least three independent experiments; for Rmax (cAMP): hMC4R = 100
Description: The medium contained Dulbecco's Modified Eagle's medium (DMEM) (Invitrogen, Carlsbad, CA, USA), 10% newborn calf serum, 10 mM HEPES, 50 μg/mL of gentamicin, 0.25 μg/mL of amphotericin B, 100 μg/mL of streptomycin and 100 IU/mL of penicillin. Cells were plated into 24-well or 6-well plates (Corning, NY, USA) pre-coated with 0.1% gelatin.
Radioimmunoassay for intracellular cAMP was performed as described previously ([47], [48]).
Prism 8.3 software (GraphPad, San Diego, CA, USA) was used to calculate parameters including maximal binding (Bmax), IC50, maximal response (Rmax), basal activity, and EC50. […] Ligand binding, cAMP, flow cytometry parameters of caMC4R regulated by MRAP2s and ERK1/2 signaling were analyzed for significance of differences by one-way ANOVA.
HEK293T cells were transiently transfected with MC4R plasmids. […] Data are mean ± SEM from triplicate measurements within one experiment. All experiments were performed at least three times independently.

Row | Compound | binding affinity, in words (caMC4R [1]) | EC50 and Rmax compared with hMC4R, in words (caMC4R [2]; caMC4R versus hMC4R, cAMP) | stimulation of intracellular cAMP, in words (caMC4R [2]; caMC4R) | EC50 (caMC4R [2]; caMC4R) | Rmax (cAMP) (caMC4R [2]; caMC4R) | allosteric agonism, in words (caMC4R [2]; caMC4R, concluded from binding and cAMP data) | IC50 (caMC4R [1])
1 | O=C(N[C@H](Cc1ccc(Cl)cc1)C(=O)N1CCC(Cn2cncn2)(C2CCCCC2)CC1)[C@H]1Cc2ccccc2CN1 [THIQ, N-[(3R)-1,2,3,4-Tetrahydroisoquinolinium-3-ylcarbonyl]-(1R)-1-(4-chlorobenzyl)-2-[4-cyclohexyl-4-(1H-1,2,4-triazol-1-ylmethyl)piperidin-1-yl]-2-oxoethylamine] | able to displace the ^125I-NDP-MSH bound with caMC4R | EC50 was significantly increased and Rmax was significantly decreased | dose-dependently increased intracellular cAMP levels | 75.7 ± 10.6 nM | 39.73 ± 1.37^b % | not an allosteric agonist at caMC4R | –
2 | CSCC[C@H](NC(=O)[C@H](CCCNC(=N)N)NC(=O)[C@H](Cc1ccc(O)cc1)NC(=O)[C@@H]1CCCN1C(=O)CNC(=O)[C@H](CCC(=O)O)NC(=O)[C@H](CC(=O)O)NC(=O)[C@H](CCCCN)NC(=O)[C@H](CCCCN)NC(=O)[C@H](CCC(=O)O)NC(=O)[C@H](C)N)C(=O)N[C@@H](CCC(=O)O)C(=O)N[C@@H](Cc1c[nH]cn1)C(=O)N[C@@H](Cc1ccccc1)C(=O)N[C@@H](CCCNC(=N)N)C(=O)N[C@@H](Cc1c[nH]c2ccccc12)C(=O)NCC(=O)N[C@@H](CO)C(=O)N1CCC[C@H]1C(=O)N1CCC[C@H]1C(=O)N[C@@H](CCCCN)C(=O)N[C@@H](CC(=O)O)C(=O)O [β-MSH, β-melanocyte-stimulating hormone] | significantly higher affinity to β-MSH than hMC4R | – | dose-dependently increased intracellular cAMP levels | 5.76 ± 1.62 nM | 167.74 ± 27.91% | – | 442 ± 65.4 nM
3 | [Nle^4, D-Phe^7]-α-MSH [NDP-MSH] | – | – | dose-dependently increased intracellular cAMP levels | 0.44 ± 0.24 nM | 84.48 ± 8.28% | – | 4.87 ± 1.8 nM
